Measurements reported in patent publication US3966779A, “Thymol derivatives and a process for their preparation” (priority 1974, dated 1976).
Structures can show the parent of a compound that is named as a salt.

Tests used:
[1] = Acute toxicity, 7-day test, method of Litchfield and Wilcoxon; details: mouse, in vivo, mice
From the text: The toxicity has been determined in a 7-day test with NMRI-mice having an average body weight of 18 to 26 g according to the method of Litchfield and Wilcoxon.

nictitating-membrane = assay: Adrenaline stimulated nictitating-membrane of anesthetized cats (peripheral vasodilation); format: in vivo; details: for change in adrenaline-induced nictitating-membrane contraction: anesthetized cats, 0.01 mg Adrenaline i.v.; for effectiveness compared to Compound A (nictitating-membrane): in words, from Table II
Description: a. Adrenaline stimulated nictitating-membrane of anesthetized cats
This experiment is a classical model for the measurements of a peripheral vasodilation. Male and female cats have been anesthetized with pentobarbital. After tracheotomy the contraction of the nictitating-membrane was recorded by means of a strain-gauge. As stimulating agent 0.01 mg Adrenaline has been administered intravenously in intervals of 10 minutes.

isolated rabbit ears = assay: Isolated rabbit ears, Pissensky's method (increased number of drops)
Description: b. Experiments on isolated rabbit ears
Male and female rabbits were killed 15 minutes after administration of heparine. Both ears were then cut off at the bases and examined according to Pissensky's method. The overflowing drops were measured by means of an electronic drop counter.

[2] = prior art, cited from earlier work

| SMILES | LD50 at 168 h ([1]; iv) | LD50 at 168 h ([1]; po, i.g.) | LD50 at 168 h ([1]; sc) | change in adrenaline-induced nictitating-membrane contraction (nictitating-membrane; 0.025 mg/kg i.v.) | change in adrenaline-induced nictitating-membrane contraction (nictitating-membrane; 0.5 mg/kg i.v.) | change in adrenaline-induced nictitating-membrane contraction (nictitating-membrane; 2 mg/kg i.v.) | effectiveness compared to Compound A (nictitating-membrane) (nictitating-membrane) | Increased number of drops measured in the isolated rabbit ear (isolated rabbit ears; 0,5 mg) | Increased number of drops measured in the isolated rabbit ear (isolated rabbit ears; 1 mg) | Increased number of drops measured in the isolated rabbit ear (isolated rabbit ears; 2 mg) | Increased number of drops measured in the isolated rabbit ear (isolated rabbit ears; 4 mg) | Increased number of drops measured in the isolated rabbit ear (isolated rabbit ears; 0,025 mg) | action on the vessels of isolated rabbit ears (isolated rabbit ears; in words, from Table III) | duration of action [2] | absorbability ([2]; thymoxamine) | toxicity ([2]; thymoxamine) |
| --- | --- | --- | --- | --- | --- | --- | --- | --- | --- | --- | --- | --- | --- | --- | --- | --- |
| Cc1cc(OCCN(C)C)c(C(C)C)cc1OC(=O)OC(C)C [Compound 1, (4-Isopropoxycarboxy-thymyl)-(2'-dimethylaminoathyl)-ether.HCl] | 44 mg/kg | 272 mg/kg | 210 mg/kg | ~ 60% | 100% | absolute in- | much more effective than Compound A | ~ 20% | 34% | 58% | 139% | ~ 10% | unexpected action on the vessels of isolated rabbit ears |  |  |  |
| CCCCCCCCCC(=O)Oc1cc(C(C)C)c(OCCN(C)C)cc1C [Compound 2, (4-Caprinyloxy-thymyl)-(2'-dimethylaminoathyl)-ether.HCl] | 96 mg/kg | 1020 mg/kg | 1550 mg/kg | ~ 10% | ~ 50% | 80% | much more effective than Compound A | 10% | 27% | 68% | ~ 80% | 15% |  |  |  |  |
| CCCCCCCC(=O)Oc1cc(C(C)C)c(OCCN(C)C)cc1C [Compound 3, (4-Capryloxy-thymyl)-(2'-dimethylaminoathyl)-ether.HCl] | 25 mg/kg | 400 mg/kg |  | ~ 30% | 80% | 100% | much more effective than Compound A | 80% |  |  |  | ~ 40% |  |  |  |  |
| CC(=O)Oc1cc(C(C)C)c(OCCN(C)C)cc1C [Compound A, reference compound] | 48 mg/kg | 193 mg/kg | 156 mg/kg | 0% | 0% | 50% |  | 15% | 15% | 16% | 16% | 14% |  | short duration of action | low absorbability | relative toxicity |
